From US7897732B2, “Antibodies to heparin-binding growth factor (HBGF) polypeptides” (Childrens Hospital Research Foundation, priority 1997, dated 2011)

Experiments:
[1] = system: Vascular smooth muscle cells; assay: Smooth muscle cell DNA synthesis assay; format: cell-based, pig; settings: 3 ng/ml
Description: (§1) Target cell specificity was studied using Balb/c 3T3 cells, bovine capillary endothelial cells (BCECs), and vascular smooth muscle cells. 3T3 cells were utilized as described above. BCECs were obtained from Dr. J. Folkman (Children's Hospital, Boston, Mass.) and were maintained in gelatinized culture flasks in Dulbecco's modified Eagle's medium containing 3 ng/ml bFGF and 10% heat-inactivated bovine calf serum. Smooth muscle cells were isolated from a 2-3-cm length of pig thoracic aorta using established procedures (Weich, H. A., et al., Growth Factors 2, 313-320 (1990)) and maintained in 10% Dulbecco's modified Eagle's medium, 10% fetal bovine serum. BCEC and smooth muscle cell DNA synthesis assays were performed in 48- or 96-well plates essentially as described (Besner, G. E., Higashiyama, S., and Kagsbrun, M. Cell Regul. 1, 811-819 (1990)). BCEC DNA synthesis assays were also performed in the presence of 100 μg/ml porcine heparin.

[2] = system: Balb/c 3T3 fibroblasts; assay: DNA synthesis ([3H]thymidine incorporation) assay in confluent quiescent Balb/c 3T3 cells; format: cell-based; settings: for [3H]Thymidine incorporation (mean ± S.D.): Balb/c 3T3 fibroblasts
Description: To assess the relative mitogenic capability of HBGFs with IGF-1, EGF, bFGF, and PDGF-AB, DNA synthesis assays on 3T3 cells were performed (Table 4). Biologically active fractions containing the 0.3-0.6 M NaCl eluate from the Bio-Rex column were pooled, diluted 3-fold with 20 mM Tris-HCL (pH 7.4) containing 0.1% CHAPS, passed through a 0.45-μm membrane filter, placed in a siliconized polypropylene vessel, and applied with a peristaltic pump to an EconoPac heparin column (0.7×3.6 cm; Bio-Rad) at 2 ml/min. The heparin column was then washed with 50 ml of 20 mM Tris-HCl buffer, 0.2 M NaCl, 0.1% CHAPS and developed at 1 ml/min with a 40 ml gradient of 0.1-2.0 M NaCl in 20 mM Tris-HCl, 0.1% CHAPS (pH 7.4) using a fast protein liquid chromatography (FPLC) system (Pharmacia Biotech Inc.). Fractions (1 ml) were collected into siliconized tubes during NaCl gradient elution and tested for 3T3 cell mitogenic activity. Column fractions were tested for their ability to stimulate DNA synthesis as measured by [^3H]thymidine incorporation into the DNA of confluent quiescent Balb/c 3T3 cells grown in 200 μl of Dulbecco's modified Eagle's medium, 10% bovine calf serum in 96-well culture plates as described (Kim, G. Y., et al., Biol. Reprod. 52, 561-571 (1995)). Dose-response curves to purified growth factors from ULF were established by assaying each dose in triplicate, with data computed as mean±S.D. Statistical significance of the effects of 1-100 μg/ml porcine heparin (Sigma) on growth factor activity was determined by Students' t test.

[3] = system: bovine capillary endothelial cells (BCECs); assay: BCEC DNA synthesis assay; format: cell-based
Description: as §1

[4] = [3H]heparin binding of synthetic CTGF polypeptides on nitrocellulose dot-blot; settings: 37.5 nmol polypeptide on nitrocellulose, 10 μCi/ml [3H]heparin, room temperature
Source text: Eighteen synthetic polypeptides spanning the entire 103 C-terminal residues of CTGF were synthesized and received as a cleaved PepSet™ from Chiron Mimotopes (Clayton, Victoria, Australia). All polypeptides were synthesized with acetylated N-termini and amidated C-termini except CTGF-(247-255) and CTGF-(247-260), which were synthesized with free N-terminal amines, and CTGF-(326-349) and CTGF-(339-349), which were synthesized with acid C-termini (Table 3).
All polypeptides contained one or no Cys residues; Cys^292 in CTGF(285-292) and Cys^325 in CTGF-(318-328) were replaced with Ser to prevent intra-chain disulfide bridging to Cys^287 or Cys^323 within the respective polypeptides. Heparin-binding properties were determined using an adaptation of the method of Baird et al. (Baird, A., et al. Proc. Natl. Acad. Sci. U.S.A. 85, 2324-2328(1988)). Briefly, 37.5 nmol of each polypeptide were absorbed in duplicate to nitrocellulose using a dot-blot apparatus. The blot was blocked for 30 min. with 10 mM Tris-HCl, 0.15 M NaCl, 0.1% bovine serum albunin (pH 7.4) and then incubated for 3 hr. at room temperature in this solution containing 10 μCi/ml [^3H]heparin (NEN Life Science Products). The blot was washed four times with 10 mM Tris-HCl, 0.15 M NaCl, and individual dots were mixed with scintillation fluid for counting of [^3H].

Substance | [3H]Heparin bound (mean ± S.D.) [4] | other results
basic fibroblast growth factor [bFGF] | – | [3H]Thymidine incorporation (mean ± S.D.) [1]: 3,082 ± 374 Cpm/well; [3H]Thymidine incorporation (mean ± S.D.) ([2]; 10 ng/ml): 73,853 ± 3,122 Cpm/well; [3H]Thymidine incorporation (mean ± S.D.) ([3]; 3 ng/ml): 2,865 ± 276 Cpm/well; [3H]Thymidine incorporation (mean ± S.D.) ([3]; 3 ng/ml + 100 μg/ml heparin): 1,840 ± 4 Cpm/well
insulin-like growth factor [IGF-1, reference compound] | – | [3H]Thymidine incorporation (mean ± S.D.) ([2]; 30 ng/ml): 4,412 ± 170 Cpm/well
MFIKTCA (Ac-MFIKTCA-NH2) [CTGF-(318-324)] | 475 ± 116 cpm/μg | –
PGDNDIFESLY (Ac-PGDNDIFESLY-NH2) [CTGF-(330-340)] | 10 ± 0.5 cpm/μg | –
CTPHRTTTLPVEFK (Ac-CTPHRTTTLPVEFK-NH2) [CTGF-(293-306)] | 9 ± 1.1 cpm/μg | –
heparin [reference compound] | – | Effect on basal or calf serum-stimulated DNA synthesis in 3T3 cells ([2]; 1-100 μg/ml heparin): no effect; [3H]Thymidine incorporation (mean ± S.D.) ([3]; 100 μg/ml): 240 ± 52 Cpm/well
EENIKKGKKCIRTP [CTGF-(247-260)] | 836 ± 1 cpm/μg | –
platelet-derived growth factor [PDGF-AB, reference compound] | – | [3H]Thymidine incorporation (mean ± S.D.) ([2]; 30 ng/ml): 110,110 ± 7,077 Cpm/well
HYNCPGDNDIFESLYYRKMYGDMA (Ac-HYNCPGDNDIFESLYYRKMYGDMA-OH) [CTGF-(326-349)] | 10 ± 1 cpm/μg | –
FKCPDGEVMKKNMMFIKT (Ac-FKCPDGEVMKKNMMFIKT-NH2) [CTGF-(305-322)] | 237 ± 22 cpm/μg | –
aFGF: acidic fibroblast growth factor | – | [3H]Thymidine incorporation (mean ± S.D.) ([3]; 3 ng/ml): 603 ± 46 Cpm/well; [3H]Thymidine incorporation (mean ± S.D.) ([3]; 3 ng/ml + 100 μg/ml heparin): 2,232 ± 236 Cpm/well
epidermal growth factor [EGF, reference compound] | – | [3H]Thymidine incorporation (mean ± S.D.) [1]: 1,343 ± 378 Cpm/well; [3H]Thymidine incorporation (mean ± S.D.) ([2]; 30 ng/ml): 11,550 ± 101 Cpm/well
TPKISKPIKFELSGCTS (Ac-TPKISKPIKFELSGCTS-NH2) [CTGF-(259-275)] | 124 ± 3 cpm/μg | –
MFIKTCASHYN (Ac-MFIKTCASHYN-NH2) [Ser^325 CTGF-(318-328)] | 601 ± 40 cpm/μg | –
LYYRKMYGDMA (Ac-LYYRKMYGDMA-OH) [CTGF-(339-349)] | 9 ± 0.5 cpm/μg | –
GVCTDGR (Ac-GVCTDGR-NH2) [CTGF-(285-291)] | 7 ± 0.3 cpm/μg | –
EENIKKGKK [CTGF-(247-255)] | 10 ± 0.3 cpm/μg | –
IRTPKISKPIKFELSG (Ac-IRTPKISKPIKFELSG-NH2) [CTGF-(257-272)] | 70 ± 13 cpm/μg | –
PDGEVMKKNMMFIKT (Ac-PDGEVMKKNMMFIKT-NH2) [CTGF-(308-322)] | 71 ± 2 cpm/μg | –
TPHRTTTLPVEFK (Ac-TPHRTTTLPVEFK-NH2) [CTGF-(294-306)] | 11 ± 0.4 cpm/μg | –
TSMKTYRAKFCGV (Ac-TSMKTYRAKFCGV-NH2) [CTGF-(274-286)] | 1108 ± 119 cpm/μg | –
TSMKTYRAKF (Ac-TSMKTYRAKF-NH2) [CTGF-(274-283)] | 388 ± 12 cpm/μg | –
GVCTDGRS (Ac-GVCTDGRS-NH2) [Ser^292 CTGF-(285-292)] | 8 ± 0.4 cpm/μg | –
ACHYN [CTGF-(324-328)] | 9 ± 1 cpm/μg | –
